Results reported in US20060058286A1, “Methods of treating HIV infection” (priority 2004, published 2006).

Legend:
[1] = tested on: HIV-1 NL4-3; test: microbe, parasite or virus in culture; conditions: Human immunodeficiency virus 1, NL43, MT2, 120 h
Method: (§1) Virus and cell lines. The T-cell line, MT-2 was obtained through the AIDS Research and Reference Reagent Program, NIAID and was contributed by Dr. D. Richman. The cell line was cultured in RPMI 1640 medium supplemented with 10% fetal bovine serum, 2 mM L-glutamine and sub-cultured twice a week. The NL4-3 strain of HIV-1 was obtained from the AIDS Research and Reference Reagent Program. Both virus stocks were amplified and titered in MT-2 cells using a virus infectivity assay.
(§2) Drug Susceptibility and Cytotoxicity Assays. For drug susceptibility assays, MT-2 cells were infected with HIV-1 NL4-3 at an MOI of 0.001, and seeded into 96-well microtiter plates (2.5×10^5 cells/ml) containing serial dilutions of test compounds. […] Each drug ratio consisted of an array of 3-fold serial dilutions, and was performed in quadruplicate. The plates were incubated at 37° C./5% CO2. The MT-2 cells infected with HIV-1 NL4-3 were incubated for 5 days. On day-five post-infection, 20 μl from each well was harvested and quantitated by a reverse transcriptase (RT) assay or an MTS assay. Cytotoxicity assays were performed using uninfected cells, exposed to the same drug combinations, and incubated for five days. Cell viability was determined by an XTT assay. The CC50 values were calculated by using the exponential form of the median effect equation as mentioned below for calculation of EC50.
(§3) In this equation, Fa stands for “fraction affected,” and represents the fraction of the viral load that has been inactivated.
In carrying out the combination experiments below, the EC50 for Compound 1 and each comparator compound was determined during the course of each study, and used in the subsequent data analysis.

[2] = tested on: HIV-1 NL4-3; test: Two-drug combination study with Compound 1 (combination indices); assay type: cell-based; conditions: for Combination Indices at 50% HIV Inhibition (Confidence Interval) / Combination Indices at 75% HIV Inhibition (Confidence Interval) / Combination Indices at 90% HIV Inhibition (Confidence Interval): 95% CI in parentheses; for Overall Result: overall antiviral effect of the two-drug combination with Compound 1, all ratios and effective levels
Method: as §1, §2
Analysis of Drug Combination Effects. For determination of CI values, drugs were diluted in a fixed ratio and multiple ratios were analyzed. The drug serial dilutions spanned a range of concentrations near the EC50 value of each compound, so that equivalent antiviral activities could be compared. Concentration-response curves were estimated for each individual drug and every combination using the median-effect equation. The equation was fit using a nonlinear regression routine (Proc Nlin) in PC SAS version 8.01 (SAS Institute Inc., SAS Version 8.01, Cary, N.C.: SAS Institute Inc., 1990).
as §3
To assess antiviral effects of different drug combination treatments, combination indices (CIs) were calculated according to Chou and Rideout. The combination index was computed as CI=[D]1/[Dm]1+[D]2/[Dm]2
In this equation [Dm]1 and [Dm]2 are the concentrations of drugs that would individually produce a specific level of effect, while [D]1 and [D]2 are the concentrations of drugs in combination that would produce the same level of effect.
Theoretically, additivity is implied if the CI is equal to one, synergy if the CI is less than one, and antagonism if the CI is greater than one. […] At best, we can construct a range that contains the likely values for the CI, given the noise in the data. In this report, these ranges are reported in parentheses next to each point estimate of the CI. […] If the range fell entirely above 1.0, we would infer antagonistic behavior. If the range were to include 1.0, we would infer additivity.

[3] = combination with Compound 1, EC50 ratio 1:1 (Compound 1:comparator)
[4] = combination with Compound 1, EC50 ratio 1:2.5 (Compound 1:comparator)
[5] = combination with Compound 1, EC50 ratio 2.5:1 (Compound 1:comparator)

| SMILES | EC50 [1] | Combination Indices at 50% HIV Inhibition (Confidence Interval) [2, 3] | Combination Indices at 75% HIV Inhibition (Confidence Interval) [2, 3] | Combination Indices at 90% HIV Inhibition (Confidence Interval) [2, 3] | Combination Indices at 50% HIV Inhibition (Confidence Interval) [2, 4] | Combination Indices at 75% HIV Inhibition (Confidence Interval) [2, 4] | Combination Indices at 90% HIV Inhibition (Confidence Interval) [2, 4] | Combination Indices at 50% HIV Inhibition (Confidence Interval) [2, 5] | Combination Indices at 75% HIV Inhibition (Confidence Interval) [2, 5] | Combination Indices at 90% HIV Inhibition (Confidence Interval) [2, 5] | Overall Result [2] | further results |
| --- | --- | --- | --- | --- | --- | --- | --- | --- | --- | --- | --- | --- |
| Nc1nc(NC2CC2)c2ncn([C@H]3C=C[C@@H](CO)C3)c2n1 [Abacavir, abacavir] | 0.74 µM | 0.66 (0.48, 0.84) | 0.89 (0.55, 1.91) | 1.20 (0.48, 1.91) | 0.58 (0.45, 0.71) | 0.92 (0.62, 1.21) | 1.46 (0.72, 2.20) | 0.65 (0.44, 0.86) | 0.88 (0.49, 1.28) | 1.20 (0.36, 2.05) | Additive | combination effect at the 50% effective level ([2]; combination with Compound 1): synergy; combination effect at the 75% and 90% effective levels ([2]; combination with Compound 1): additivity |
| CC(C)CN(C[C@@H](O)[C@H](Cc1ccccc1)NC(=O)O[C@H]1CCOC1)S(=O)(=O)c1ccc(N)cc1 [Amprenavir, amprenavir] | 0.042 µM | 0.37 (0.24, 0.49) | 0.53 (0.28, 0.78) | 0.95 (0.24, 1.67) | 0.37 (0.27, 0.48) | 0.56 (0.33, 0.78) | 1.05 (0.38, 1.71) | 1.17 (0.91, 1.43) | 0.87 (0.60, 1.13) | 0.74 (0.38, 1.10) | Additive- | Overall Result ([2]; listed as amprenavir): additive to synergistic |
| COC(=O)N[C@H](C(=O)N[C@@H](Cc1ccccc1)[C@@H](O)CN(Cc1ccc(-c2ccccn2)cc1)NC(=O)[C@@H](NC(=O)OC)C(C)(C)C)C(C)(C)C [Atazanavir, atazanavir] | 0.009 µM | 0.64 (0.54, 0.73) | 0.60 (0.49, 0.72) | 0.59 (0.43, 0.75) | 0.91 (0.81, 1.20) | 0.90 (0.70 1.10) | 0.90 (0.57, 1.23) | 1.01 (0.80, 1.19) | 1.02 (0.77, 1.28) | 1.09 (0.67, 1.50) | Additive- | Overall Result ([2]; listed as atazanavir): additive to synergistic |
| CON(Cc1ccc(F)cc1)C(=O)/C=C(\O)C(=O)O [Compound 1, (Z)-3-[(4-Fluoro-benzyl)-methoxy-carbamoyl]-2-hydroxy-acrylic acid] | 0.155 µM |  |  |  |  |  |  |  |  |  | synergistic or additive-synergistic |  |
| COc1ncc(OC)c2c(C(=O)C(=O)N3CCN(C(=O)c4ccccc4)CC3)c[nH]c12 [Compound 3] | 0.001 µM | 0.92 (0.77, 1.06) | 0.90 (0.70, 1.10) | 0.89 (0.58, 1.21) | 0.71 (0.60, 0.82) | 0.66 (0.51, 0.80) | 0.61 (0.40, 0.82) | 0.41 (0.36, 0.47) | 0.41 (0.33, 0.48) | 0.40 (0.28, 0.52) | synergistic to additive | combination effect at the 13:1 and 82.5:1 molar ratios ([2]; combination with Compound 1): moderate synergy; combination effect at the 33:1 molar ratio ([2]; combination with Compound 1): additivity |
| CC(C)Nc1cccnc1N1CCN(C(=O)c2cc3cc(NS(C)(=O)=O)ccc3[nH]2)CC1 [Delavirdine, delavirdine] | 0.05 µM | 0.64 (0.50, 0.78) | 0.59 (0.41, 0.78) | 0.58 (0.30, 0.85) | 0.56 (0.47, 0.64) | 0.41 (0.32, 0.50) | 0.31 (0.20, 0.41) | 0.52 (0.44, 0.60) | 0.44 (0.34, 0.54) | 0.39 (0.26, 0.53) | Synergistic | Overall Result ([2]; listed as delavirdine): strong synergistic effects |

More lines, main results first:

| EC50 [1] | SMILES | Combination Indices at 50% HIV Inhibition (Confidence Interval) [2, 3] | Combination Indices at 75% HIV Inhibition (Confidence Interval) [2, 3] | Combination Indices at 90% HIV Inhibition (Confidence Interval) [2, 3] | Combination Indices at 50% HIV Inhibition (Confidence Interval) [2, 4] | Combination Indices at 75% HIV Inhibition (Confidence Interval) [2, 4] | Combination Indices at 90% HIV Inhibition (Confidence Interval) [2, 4] | Combination Indices at 50% HIV Inhibition (Confidence Interval) [2, 5] | Combination Indices at 75% HIV Inhibition (Confidence Interval) [2, 5] | Combination Indices at 90% HIV Inhibition (Confidence Interval) [2, 5] | Overall Result [2] | further results |
| --- | --- | --- | --- | --- | --- | --- | --- | --- | --- | --- | --- | --- |
| 0.27 µM | O=c1[nH]cnc2c1ncn2[C@H]1CC[C@@H](CO)O1 [Didanosine, didanosine] | 0.20 (0.14, 0.25) | 0.27 (0.17, 0.37) | 0.40 (0.16, 0.64) | 0.16 (0.12, 0.20) | 0.21 (0.14, 0.28) | 0.31 (0.13, 0.49) | 0.31 (0.27, 0.36) | 0.32 (0.26, 0.39) | 0.35 (0.23, 0.47) | Synergistic | Overall Result ([2]; listed as didanosine): synergistic |
| 0.0015 µM | O=C1Nc2ccc(Cl)cc2[C@@](C#CC2CC2)(C(F)(F)F)O1 [Efavirenz, efavirenz] | 0.57 (0.44, 0.70) | 0.56 (0.38, 0.74) | 0.56 (0.28, 0.84) | 0.49 (0.36, 0.62) | 0.54 (0.34, 0.75) | 0.61 (0.26, 0.97) | 0.60 (0.45, 0.74) | 0.51 (0.33, 0.68) | 0.43 (0.20, 0.67) | Synergistic | Overall Result ([2]; listed as efavirenz): strong synergistic effects |
| 0.11 µM | Nc1nc(=O)n([C@@H]2CS[C@H](CO)O2)cc1F [Emtricitabine, emtricitabine] | 0.52 (0.44, 0.59) | 0.40 (0.32, 0.48) | 0.32 (0.22, 0.41) | 0.74 (0.63, 0.84) | 0.64 (0.52, 0.77) | 0.57 (0.39, 0.75) | 0.49 (0.42, 0.56) | 0.34 (0.28, 0.41) | 0.25 (0.17, 0.33) | Synergistic | Overall Result ([2]; listed as emtricitibine): synergistic |
